Experimental data published in patent US20080021055A1, “Novel cycloalkyl derivatives as inhibitors of bone resorption and vitronectin receptor antagonists” (Aventis Pharma S.A., priority 1996, published 2008).

Biological target: T1, vitronectin receptor αvβ3 (Homo sapiens, UniProt P05106+P06756)
T1 construct: expressed in transfected cells
Experiment: Vn/293 cell test: inhibition of the binding of 293 cells to human vitronectin
Type: cell-based
Conditions: 293 cells cotransfected with αv and β3 subunits, binding to plates coated with human vitronectin, 90 min at 37° C.
Text: The inhibitory action of the compounds according to the invention against the vitronectin receptor […] can be determined, for example, as described below:
Test for the measurement of the inhibition of the binding of 293 cells to human vitronectin (abbreviated in the test results to Vn/293 cell test)
1. Purification of Human Vitronectin
Human vitronectin was isolated from human plasma and purified by affinity chromatography according to the method of Yatohyo et al., Cell Structure and Function, 1988, 23, 281-292.
293 cells, a human embryonic kidney cell line, which were cotransfected with DNA sequences for the αv and β3 subunits of the vitronectin receptor were selected according to the FACS method with a view to a high expression rate (>500,000 αvβ3 receptors/cell). The selected cells were cultured and sorted again by means of FACS to obtain a stable cell line (15 D) with expression rates of >1,000,000 copies of αvβ3 per cell.
A Linbro 96-well tissue culture plate with a flat bottom was coated overnight at 4° C. with human vitronectin (0.01 mg/ml, 0.05 ml/well) in phosphate-buffered saline solution (PBS) and then blocked with 0.5% strength BSA. […] The reaction was stopped with a glycine (50 mmol)/EDTA (5 mmol) buffer (pH 10.4) and the absorption of each well was measured at 405-650 nm. The data were evaluated using standard methods.

T1 sequence (P06756 31-889 limits assumed): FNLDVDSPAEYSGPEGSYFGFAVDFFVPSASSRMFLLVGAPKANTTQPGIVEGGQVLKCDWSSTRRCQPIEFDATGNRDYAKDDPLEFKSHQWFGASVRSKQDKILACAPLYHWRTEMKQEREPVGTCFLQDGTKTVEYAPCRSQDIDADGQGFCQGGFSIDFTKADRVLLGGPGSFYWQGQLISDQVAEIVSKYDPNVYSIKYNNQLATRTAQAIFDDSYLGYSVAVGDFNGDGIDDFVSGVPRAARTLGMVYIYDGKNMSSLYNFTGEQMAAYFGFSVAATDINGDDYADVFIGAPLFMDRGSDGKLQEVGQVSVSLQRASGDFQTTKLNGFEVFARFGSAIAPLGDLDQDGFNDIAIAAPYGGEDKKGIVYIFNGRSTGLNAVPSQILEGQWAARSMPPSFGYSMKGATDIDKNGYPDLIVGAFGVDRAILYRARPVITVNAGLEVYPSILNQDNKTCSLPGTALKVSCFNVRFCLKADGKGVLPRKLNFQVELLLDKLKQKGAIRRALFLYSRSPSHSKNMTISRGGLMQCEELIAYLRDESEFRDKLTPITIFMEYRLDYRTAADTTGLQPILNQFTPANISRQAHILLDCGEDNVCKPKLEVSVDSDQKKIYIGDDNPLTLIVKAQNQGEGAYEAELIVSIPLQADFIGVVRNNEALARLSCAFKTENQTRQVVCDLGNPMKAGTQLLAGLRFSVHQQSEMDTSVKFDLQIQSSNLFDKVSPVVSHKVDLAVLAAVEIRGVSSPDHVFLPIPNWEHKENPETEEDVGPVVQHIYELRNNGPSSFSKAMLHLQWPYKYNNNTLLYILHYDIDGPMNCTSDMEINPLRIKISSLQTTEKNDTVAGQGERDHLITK
T1 sequence (P06756 891-1048 limits assumed): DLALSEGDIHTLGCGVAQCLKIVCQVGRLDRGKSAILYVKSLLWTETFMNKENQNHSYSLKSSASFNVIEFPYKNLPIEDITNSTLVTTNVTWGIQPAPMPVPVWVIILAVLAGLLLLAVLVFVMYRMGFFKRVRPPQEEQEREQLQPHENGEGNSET
T1 sequence (P05106 27-788): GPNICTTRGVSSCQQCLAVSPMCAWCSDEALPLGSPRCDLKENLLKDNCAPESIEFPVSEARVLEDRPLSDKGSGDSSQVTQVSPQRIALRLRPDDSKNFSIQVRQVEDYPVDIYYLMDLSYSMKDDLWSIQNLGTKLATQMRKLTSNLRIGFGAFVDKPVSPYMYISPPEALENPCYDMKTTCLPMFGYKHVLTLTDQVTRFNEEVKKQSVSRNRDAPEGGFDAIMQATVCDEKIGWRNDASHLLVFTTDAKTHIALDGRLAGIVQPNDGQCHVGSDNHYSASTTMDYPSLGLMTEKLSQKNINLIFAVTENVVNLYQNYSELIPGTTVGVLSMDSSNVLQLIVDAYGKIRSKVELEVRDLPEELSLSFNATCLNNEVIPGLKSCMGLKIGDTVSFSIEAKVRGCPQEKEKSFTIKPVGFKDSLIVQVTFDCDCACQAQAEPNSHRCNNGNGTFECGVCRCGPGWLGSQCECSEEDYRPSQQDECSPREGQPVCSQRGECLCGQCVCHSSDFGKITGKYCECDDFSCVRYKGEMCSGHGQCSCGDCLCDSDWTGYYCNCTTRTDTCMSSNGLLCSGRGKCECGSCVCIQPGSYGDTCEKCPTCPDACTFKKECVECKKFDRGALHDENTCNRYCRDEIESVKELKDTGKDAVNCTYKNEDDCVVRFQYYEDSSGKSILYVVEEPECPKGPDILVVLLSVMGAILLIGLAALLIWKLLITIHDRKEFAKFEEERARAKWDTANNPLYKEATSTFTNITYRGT

IC50 [nM]	Structure (SMILES)
32	O=C(CCc1ccc(C(=O)NC[C@H](NC(=O)OCC23CC4CC(CC(C4)C2)C3)C(=O)O)cc1)NC1=NCCCN1 [Example 3, (2S)-2-(1-Adamantylmethyloxycarbonylamino)-3-(4-(2-(1,4,5,6-tetra-hydropyrimidin-2-ylcarbamoyl)ethyl)benzoylamino)propionic acid]
32	N=C(N)NC(=O)CCCOc1ccc(C[C@H](NC(=O)OCC23CC4CC(CC(C4)C2)C3)C(=O)O)cc1 [Example 1, (2S)-2-(1-Adamantylmethyloxycarbonylamino)-3-(4-(3-guanidinocarbonylpropyloxy)phenyl)propionic acid]
